Here are results for 23 compounds from patent US20150141411A1, “SUBSTITUTED 3,4-DIHYDRO-2H-PYRIDO[1,2-A]PYRAZINE-1,6-DIONE DERIVATIVES USEFUL FOR THE TREATMENT OF (INTER ALIA) ALZHEIMER'S DISEASE” (Janssen Pharmaceuticals, Inc., priority 2012, published 2015).

In one experiment the test system is Aβ38. Nature of the experiment: In vivo efficacy: brain soluble Aβ38 in non-transgenic rodents (MSD electrochemiluminescence multiplex). More on the design: species or system mouse. To be noted: dose 30 mg/kg oral dosing, brain soluble fraction, animals sacrificed after 4 h; for response vs control in vivo at 30 mg/kg: Mus musculus, po, 4 h, untreated animals (Ctrl) set at 100, read-out: Aβ38 (% vs Ctrl)_Mean. An excerpt: To determine whether acute administration of an Aβ38 increasing agents would increase Aβ38 levels in vivo, non-transgenic rodents, e.g. mice or rats were used. Animals treated with the Aβ38 increasing agents were examined and compared to those untreated or treated with vehicle and brain levels of soluble Aβ42, Aβ40, Aβ38, and Aβ37 were quantitated by MSD electrochemiluminescence detection technology. Treatment periods varied from hours (h) to days and were adjusted based on the results of the Aβ38 increase once a time course of onset of effect could be established.
A typical protocol for measuring Aβ38 increase in vivo is shown but it is only one of many variations that could be used to optimize the levels of detectable Aβ. For example, Aβ38 increasing agents were formulated in 20% of Captisol® (a sulfobutyl ether of β-cyclodextrin) in water or 20% hydroxypropyl βcyclodextrin. The Aβ38 increasing agents were administered as a single oral dose or by any acceptable route of administration to overnight fasted animals. After 4 h, the animals were sacrificed and Aβ38 levels were analysed.
(§1) Blood was collected by decapitation and exsanguinations in EDTA-treated collection tubes. Blood was centrifuged at 1900 g for 10 minutes (min) at 4° C. and the plasma recovered and flash frozen for later analysis. The brain was removed from the cranium and hindbrain. The cerebellum was removed and the left and right hemisphere were separated. The left hemisphere was stored at −18° C. for quantitative analysis of test compound levels. The right hemisphere was rinsed with phosphate-buffered saline (PBS) buffer and immediately frozen on dry ice and stored at −80° C. until homogenization for biochemical assays.
(§2) Mouse brains from non-transgenic animals were resuspended in 8 volumes of 0.4% DEA (diethylamine)/50 mM NaCl containing protease inhibitors (Roche-11873580001 or 04693159001) per gram of tissue, e.g. for 0.158 g brain, add 1.264 ml of 0.4% DEA. All samples were homogenized in the FastPrep-24 system (MP Biomedicals) using lysing matrix D (MPBio #6913-100) at 6 m/s for 20 seconds. Homogenates were centrifuged at 20800×g for 5 min and supernatants collected. Supernatants were centrifuged at 221.300×g for 50 min. The resulting high speed supernatants were then transferred to fresh eppendorf tubes. Nine parts of supernatant were neutralized with 1 part 0.5 M Tris-HCl pH 6.8 and used to quantify Aβ.
(§3) To quantify the amount of Aβ42, Aβ40, Aβ38, and Aβ37 in the soluble fraction of the brain homogenates, simultaneous specific detection of Aβ42, Aβ40, Aβ38, and Aβ37 was performed using MSD's electro-chemiluminescence multiplex detection technology. In this assay purified monoclonal antibodies specific for Abeta37 (JRD/Aβ37/3), Abeta38 (J&JPRD/Aβ38/5), Abeta40 (JRF/cAβ40/28), and Abeta42 (JRF/cAβ42/26) were coated on MSD 4-plex plates. Briefly, the standards (a dilution of synthetic Aβ42, Aβ40, Aβ38, and Aβ37) were prepared in 1.5 ml Eppendorf tube in Ultraculture, with final concentrations ranging from 10000 to 0.3 pg/m. The samples and standards were co-incubated with Sulfo-tag labelled JRF/rAβ/2 antibody to the N-terminus of Aβ as detector antibody. 50 μl of conjugate/sample or conjugate/standards mixtures were then added to the antibody-coated plate. The plate was allowed to incubate overnight at 4° C. in order to allow formation of the antibody-amyloid complex. Following this incubation and subsequent wash steps the assay was finished by adding read buffer according to the manufacturer's instructions (MesoScale Discovery, Gaitherburg, Md.).
(§4) The SULFO-TAG emits light upon electrochemical stimulation initiated at the electrode. MSD Sector instrument SI6000 was used for signal read-out.
In this model a Aβ38 increase compared to untreated animals would be advantageous, in particular a Aβ38 increase with at least 10%, more in particular a Aβ38 increase with at least 20%. […]

The subject of the next experiment is Aβ42. Nature of the experiment: In vivo efficacy: brain soluble Aβ42 in non-transgenic rodents (MSD electrochemiluminescence multiplex). More on the design: species or system mouse. To be noted: dose 30 mg/kg oral dosing, brain soluble fraction, animals sacrificed after 4 h; for response vs control in vivo at 30 mg/kg: Mus musculus, po, 4 h, untreated animals (Ctrl) set at 100, read-out: Aβ42 (% vs Ctrl)_Mean.
From the text: To determine whether acute administration of an Aβ42 lowering agent would reduce Aβ42 levels in vivo, non-transgenic rodents, e.g. mice or rats were used. Animals treated with the Aβ42 lowering agent were examined and compared to those untreated or treated with vehicle and brain levels of soluble Aβ42, Aβ40, Aβ38, and Aβ37 were quantitated by Meso Scale Discovery's (MSD) electrochemiluminescence detection technology. Treatment periods varied from hours (h) to days and were adjusted based on the results of the Aβ42 lowering once a time course of onset of effect could be established.
A typical protocol for measuring Aβ42 lowering in vivo is shown but it is only one of many variations that could be used to optimize the levels of detectable Aβ. For example, Aβ42 lowering compounds were formulated in 20% of Captisol® (a sulfo-butyl ether of β-cyclodextrin) in water or 20% hydroxypropyl βcyclodextrin. The Aβ42 lowering agents were administered as a single oral dose or by any acceptable route of administration to overnight fasted animals. After 4 h, the animals were sacrificed and Aβ42 levels were analysed.
as §1, §2
as §3, with “(Meso Scale” for “(MesoScale”
as §4
In this model a Aβ42 lowering compared to untreated animals would be advantageous, in particular a Aβ42 lowering with at least 10%, more in particular a Aβ42 lowering with at least 20%. […]

The mark [1] stands for this setting: untreated animals (Ctrl) set at 100, 30 mg/kg.

On to `Cc1cn(-c2ccc3n(c2=O)C[C@@H](C)N(Cc2cc(OC(C)C)nc(C(F)(F)F)c2)C3=O)cn1` [compound 128], for which the response vs control in vivo at 30 mg/kg in the experiment with Aβ38 was determined as 162%; in the experiment with Aβ42, 60%.

On to `Cc1cn(-c2ccc3n(c2=O)C[C@@H](C)N(Cc2cc(N4CCC(C)CC4)ccc2Cl)C3=O)cn1` [compound 80], for which the results for the response vs control in vivo at 30 mg/kg with Aβ38 and with Aβ42 were 133% and 148%, respectively.

`Cc1cn(-c2ccc3n(c2=O)C[C@@H](C)N(Cc2cc(OCC(F)(F)F)cc(C(F)(F)F)c2)C3=O)cn1` [compound 166]: the results for the response vs control in vivo at 30 mg/kg with Aβ38 and with Aβ42 were 127% and 64%, respectively.

Turning to `Cc1cn(-c2ccc3n(c2=O)C[C@@H](C)N(Cc2c[nH]c4cc(F)c(Cl)cc24)C3=O)cn1` [compound 195], the response vs control in vivo at 30 mg/kg with Aβ38 was 123%; in the experiment with Aβ42, 105%.

`CCC(c1cc(OC)cc(C(F)(F)F)c1)N1C(=O)c2ccc(-n3cnc(C)c3)c(=O)n2C[C@H]1C` (single isomer, unassigned) [compound 141]: the response vs control in vivo at 30 mg/kg in the experiment on Aβ38 was determined as 145%; in the experiment on Aβ42, 85%.

For `Cc1cn(-c2ccc3n(c2=O)CC(C)N(C(C)c2cc(C(F)(F)F)cc(C(F)(F)F)c2)C3=O)cn1.Cl` (single isomer, unassigned) [compound 112], the “Aβ38 (% vs Ctrl)_Mean” value with Aβ38 (setting [1]) is on record as 153 % vs Ctrl. The “Aβ42 (% vs Ctrl)_Mean” value in the experiment on Aβ42 (setting [1]) turned out to be 55 % vs Ctrl.

In the case of `Cc1cn(-c2ccc3n(c2=O)CC(C)N(C(C)c2cc(C(F)(F)F)cc(C(F)(F)F)c2)C3=O)cn1.Cl` (single isomer, unassigned) [compound 111], the response vs control in vivo at 30 mg/kg in the experiment with Aβ38 amounted to 136%; in the experiment with Aβ42, 35%.

As to `Cc1cn(-c2ccc3n(c2=O)CC(C)N(Cc2cc(OCC4CC4)cc(C(F)(F)F)c2)C3=O)cn1.Cl` (stereo not shown) [compound 6], the response vs control in vivo at 30 mg/kg came out at 118% with Aβ38 and 73% in the experiment with Aβ42.

As to `Cc1cn(-c2ccc3n(c2=O)CC(C)N(C(C)c2cn(C)c4cc(F)c(Cl)cc24)C3=O)cn1` (single isomer, unassigned) [compound 189], the response vs control in vivo at 30 mg/kg in the experiment on Aβ38 and in the experiment on Aβ42 was 116% in each case.

As for `Cc1cn(-c2ccc3n(c2=O)CC(C)N(C(C)c2c[nH]c4c(F)cc(Cl)cc24)C3=O)cn1` (single isomer, unassigned) [compound 219], the response vs control in vivo at 30 mg/kg in the experiment on Aβ38 amounted to 119%; in the experiment with Aβ42 it was 76%.

On to `Cc1cn(-c2ccc3n(c2=O)C[C@@H](C)N(Cc2cc(CC4CC4)cc(C(F)(F)F)c2)C3=O)cn1` [compound 110], for which the response vs control in vivo at 30 mg/kg in the experiment with Aβ38 was 102%; in the experiment on Aβ42, 88%.

`Cc1cn(-c2cc(F)c3n(c2=O)C[C@@H](C)N(Cc2cc(C(F)(F)F)cc(C(F)(F)F)c2)C3=O)cn1` [compound 158]: the response vs control in vivo at 30 mg/kg in the experiment on Aβ38 came to 120%; in the experiment on Aβ42, 97%.

`COc1cccc(CN2C(=O)c3ccc(-n4cnc(C)c4)c(=O)n3C[C@H]2C)c1` [compound 132]: the response vs control in vivo at 30 mg/kg in the experiment on Aβ38 amounted to 84%; in the experiment with Aβ42, 104%.

`Cc1cn(-c2ccc3n(c2=O)C[C@@H](C)N(Cc2cc(OC(F)(F)F)cc(C(F)(F)F)c2)C3=O)cn1` [compound 140]: the response vs control in vivo at 30 mg/kg in the experiment with Aβ38 was 96%; in the experiment on Aβ42, 42%.

With `C[C@@H]1Cn2c(ccc(-n3cnc(Cl)c3)c2=O)C(=O)N1Cc1cc(C(F)(F)F)cc(C(F)(F)F)c1` [compound 118], the response vs control in vivo at 30 mg/kg with Aβ38 was 140%; in the experiment on Aβ42, 92%.

`Cc1cn(-c2ccc3n(c2=O)CCN(C(C)c2cn(C)c4cc(F)c(Cl)cc24)C3=O)cn1` (single isomer, unassigned) [compound 185]: the response vs control in vivo at 30 mg/kg in the experiment on Aβ38 is 170%; in the experiment on Aβ42 it was 68%.

As for `Cc1cn(-c2ccc3n(c2=O)C[C@@H](C)N(Cc2cc(CC(F)(F)F)cc(C(F)(F)F)c2)C3=O)cn1` [compound 134], the response vs control in vivo at 30 mg/kg turned out to be 138% with Aβ38 and 97% in the experiment on Aβ42.

As for `Cc1cn(-c2ccc3n(c2=O)C[C@@H](C)N(Cc2cc(N4CCOC(C(F)(F)F)C4)cc(C(F)(F)F)c2)C3=O)cn1` (mixture of isomers) [compound 153], the response vs control in vivo at 30 mg/kg in the experiment on Aβ38 amounted to 108%; in the experiment with Aβ42 it was 100%.

For `Cc1cn(-c2ccc3n(c2=O)C[C@@H](C)N(Cc2cc(N4CCCC4)ccc2Cl)C3=O)cn1` [compound 82], the response vs control in vivo at 30 mg/kg in the experiment on Aβ38 stood at 118%; in the experiment on Aβ42 it was 103%.

Take `CCOc1cc(C(C)N2C(=O)c3ccc(-n4cnc(C)c4)c(=O)n3C[C@H]2C)cc(C(F)(F)F)c1` (single isomer, unassigned) [compound 143]: the response vs control in vivo at 30 mg/kg in the experiment with Aβ38 turned out to be 122%; in the experiment with Aβ42 it was 123%.

Turning to `Cc1cn(-c2ccc3n(c2=O)C[C@@H](C)N(Cc2cc(C4CC4)cc(C(F)(F)F)c2)C3=O)cn1` [compound 116], the response vs control in vivo at 30 mg/kg in the experiment on Aβ38 stood at 182%; in the experiment with Aβ42, 75%.

Consider `Cc1cn(-c2ccc3n(c2=O)CCN(C(C)c2c[nH]c4cc(F)c(Cl)cc24)C3=O)cn1` (single isomer, unassigned) [compound 183], for which the response vs control in vivo at 30 mg/kg in the experiment on Aβ38 stood at 141%; with Aβ42, 97%.

As for `Cc1cn(-c2ccc3n(c2=O)C[C@@H](C)N(Cc2ccc(F)c(F)c2)C3=O)cn1` [compound 133], the figures for the response vs control in vivo at 30 mg/kg in the experiment with Aβ38 and with Aβ42 were 84% and 87%, respectively.
